Patent US20080305547A1, “Method for enhanced functional expression of cell receptors” (priority 2007, published 2008)
Each block holds one molecule with its values, some of them ahead of it.

Legend:
[1] = biological target: T1, mOR-EG (Mus musculus, UniProt Q920P2); test: cAMP ELISA in transfected HEK293T cells expressing mOR-EG; type: cell-based, murine; conditions: cells transfected with mOR-EG, Ric-8B and Gαolf; 300 μM
T1 construct: expressed in transfected cells; host or cells: HEK293T
T1 sequence (Q920P2 1-313): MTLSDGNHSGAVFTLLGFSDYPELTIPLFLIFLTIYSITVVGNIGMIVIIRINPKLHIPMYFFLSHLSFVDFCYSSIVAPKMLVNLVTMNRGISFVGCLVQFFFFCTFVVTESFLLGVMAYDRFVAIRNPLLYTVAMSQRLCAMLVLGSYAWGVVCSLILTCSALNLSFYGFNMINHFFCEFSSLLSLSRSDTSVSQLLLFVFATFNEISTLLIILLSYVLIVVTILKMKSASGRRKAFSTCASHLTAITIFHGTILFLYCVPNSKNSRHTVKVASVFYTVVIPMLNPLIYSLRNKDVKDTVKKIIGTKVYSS
Experimental: (§1) These experiments were carried out in order to determine if Ric-8B amplifies signaling through odorant receptors (“ORs” hereafter). This was accomplished by using one of the murine ORs, i.e., first cloning murine OR-EG (“mOR-EG” hereafter), from murine genomic DNA via polymerase chain reaction (“PCR”), using standard method. Following this, receptor specificity was confirmed by functional expression of the rhodopsin tagged version of mOR-EG, in HEK293T cells. This is explained infra.
(§2) HEK293T cells were plated, at 0.5×10^5 cells/well, of a 96 well plate. The cells were cultured using standard conditions, for 16-20 hours, after which they were transfected, via the well known, lipofectamine method with mOR-EG cDNA that had been subcloned into the XboI and KpnI restriction sites of plasmid pcDNA 3.1 (−), Gαolf whose full length cDNA had been cloned from murine olfactory epithelium, and subcloned into the XboI site of pcDNA 3.1 (−) expression vector, and Ric-8B, whose full length encoding cDNA had been prepared the same way and then cloned into pcDNA3 vector, with a flag epitope, at the BamHI site of pcDNA3 were used. 100 ngs of each cDNA construct were used for transfection. After 3 hours of transfection, serum containing medium was replaced by serum free medium, and the cells were incubated for 40 hours. Then, additional serum free medium containing 300 μM of eugenol was added, after which cells were incubated for 10 minutes. Activity was determined, by using a commercially available, cAMP ELISA kit.
(§3) In these experiments, mOR-EG odorant specificity was tested, in cells which had also been transfected with Ric-8B and Gαolf Vanillin, nonenedoic acid, acetophenone, (−), limonene, heptanol, 2-heptanol, hexanol, and (+/−) cerveone were tested at high concentrations (300 μM).

[2] = biological target: T2, mOR-EG (Mus musculus, UniProt Q920P2); conditions: previously shown; cited from earlier work
T2 construct: expressed in transfected cells; host or cells: HEK293T
T2 sequence (Q920P2 with tags, fused parts or gaps): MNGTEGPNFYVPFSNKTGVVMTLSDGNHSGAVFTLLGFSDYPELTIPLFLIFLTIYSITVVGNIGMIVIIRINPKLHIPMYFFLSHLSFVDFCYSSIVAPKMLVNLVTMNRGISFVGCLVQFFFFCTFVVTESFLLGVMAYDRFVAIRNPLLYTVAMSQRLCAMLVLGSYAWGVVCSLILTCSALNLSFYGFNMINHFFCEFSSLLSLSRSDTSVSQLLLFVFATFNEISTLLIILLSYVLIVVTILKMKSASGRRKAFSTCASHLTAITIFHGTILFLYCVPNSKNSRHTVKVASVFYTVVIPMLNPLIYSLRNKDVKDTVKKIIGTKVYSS

[3] = biological target: T2, mOR-EG; test: cAMP ELISA in transfected HEK293T cells expressing mOR-EG; type: cell-based, murine; conditions: HEK293T transfected with rhodopsin tagged mOR-EG, Gαolf (and Ric-8B); 300 μM, 10 minutes
Experimental: as §1, §2, §3

[4] = biological target: T1, mOR-EG; test: as above; type: cell-based, murine; conditions: HEK293T transfected with untagged mOR-EG and Gαolf; 300 μM, 10 minutes
[5] = tested on: mOR-S6; test: cAMP ELISA in transfected HEK293T cells expressing mOR-S6; type: cell-based, murine
Experimental: as §2
The same procedures set forth supra for isolating, cloning, and amplifying mOR-EG were used for the coding region of mOR-S6. Rhodopsin tagged mOR-S6 was also used. The same protocols were carried out as are discussed supra, using nonanedoic acid as the agonist.

[6] = tested on: mOR-S6; conditions: murine olfactory neurons, single cell RT-PCR; cited from earlier work
[7] = biological target: T3, mOR-17 (Mus musculus, UniProt Q9QWU6); test: cAMP ELISA in transfected HEK293T cells expressing mOR-17; type: cell-based, murine
T3 construct: expressed in transfected cells; host or cells: HEK293T
T3 sequence (Q9QWU6 1-327): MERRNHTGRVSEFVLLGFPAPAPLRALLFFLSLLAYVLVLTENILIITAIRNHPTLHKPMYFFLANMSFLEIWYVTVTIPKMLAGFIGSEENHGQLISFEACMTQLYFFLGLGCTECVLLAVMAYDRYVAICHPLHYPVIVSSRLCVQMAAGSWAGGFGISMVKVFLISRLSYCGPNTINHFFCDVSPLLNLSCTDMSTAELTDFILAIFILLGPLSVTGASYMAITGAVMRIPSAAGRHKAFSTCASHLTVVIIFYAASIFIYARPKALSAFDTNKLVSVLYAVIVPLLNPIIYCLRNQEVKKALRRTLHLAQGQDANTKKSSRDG
Experimental: as §2
To further this work, the same protocols as are described supra were carried out, using untagged mOR-17, Gαolf, Ric-8B, and RTP1.

[8] = biological target: T4, murine form of OR-17 (Mus musculus, UniProt Q9QWU6); conditions: co-expression with Gα/16 in HEK293 cells; cited from earlier work
T4 construct: host or cells: HEK293
T4 sequence (Q9QWU6 1-327): T3 sequence (Q9QWU6 1-327)

[9] = biological target: T5, OR-17 (Mus musculus, UniProt Q9QWU6); conditions: GFP tagged mouse olfactory neurons endogenously expressing OR-17; cited from earlier work
T5 construct: mouse olfactory neurons which endogenously express OR-17; host or cells: mouse olfactory neurons
T5 sequence (Q9QWU6 1-327): T3 sequence (Q9QWU6 1-327)

[10] = biological target: T6, rat OR-17 (Rattus norvegicus, UniProt P23270); conditions: cited from earlier work
T6 sequence (P23270 1-327): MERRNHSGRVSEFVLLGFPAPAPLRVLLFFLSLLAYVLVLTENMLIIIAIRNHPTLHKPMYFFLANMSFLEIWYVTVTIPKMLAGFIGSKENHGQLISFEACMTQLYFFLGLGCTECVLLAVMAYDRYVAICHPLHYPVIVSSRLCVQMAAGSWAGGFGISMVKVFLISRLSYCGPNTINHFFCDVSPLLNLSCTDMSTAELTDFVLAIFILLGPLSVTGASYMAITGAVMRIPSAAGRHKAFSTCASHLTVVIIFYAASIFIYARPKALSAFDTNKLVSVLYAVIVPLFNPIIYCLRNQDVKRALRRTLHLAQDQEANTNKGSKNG

Structure (SMILES): COc1cc(C=O)ccc1O [Vanillin]
stimulation of cAMP production (odorant specificity) [1]: Only eugenol stimulated production of cAMP
stimulation of rhodopsin tagged mOR-EG [2]: has been shown to stimulate

Structure (SMILES): C=CCc1ccc(O)c(OC)c1 [eugenol]
increase in cAMP levels as compared to unstimulated cells (factor) [3]: ~3
stimulation of cAMP production (odorant specificity) [1]: stimulated production of cAMP
response to the agonist (cAMP) [4]: did not respond

Structure (SMILES): C=C(C)C1CC=C(C)C(=O)C1 (racemic) [(+/−) cerveone, cerveone]
stimulation of cAMP production (odorant specificity) [1]: Only eugenol stimulated production of cAMP

Structure (SMILES): C=C(C)[C@H]1CC=C(C)CC1 [limonene]
stimulation of cAMP production (odorant specificity) [1]: Only eugenol stimulated production of cAMP

Structure (SMILES): CCCCCCCO [heptanol]
stimulation of cAMP production (odorant specificity) [1]: Only eugenol stimulated production of cAMP

Structure (SMILES): CCCCCC(C)O (stereo not drawn) [2-heptanol]
stimulation of cAMP production (odorant specificity) [1]: Only eugenol stimulated production of cAMP

Structure (SMILES): O=C(O)CCCCCCCC(=O)O [nonanedoic acid]
stimulation of cAMP production (odorant specificity) [1]: Only eugenol stimulated production of cAMP
increase in cAMP production ([5]; all four elements: rhodopsin tagged mOR-S6, Ric-8B, RTP1 and Gαolf): significant increase
increase in cAMP production ([5]; cells co-transfected with mOR-S6, Gαolf and Ric-8B): no significant increase
increase in cAMP production ([5]; cells co-transfected with mOR-S6 and Gαolf): no significant increase
increase in cAMP production ([5]; mOR-S6, Gαolf and RTP1 (RTP1 replaced Ric-8B)): slight, insignificant increase
increase in cAMP production ([5]; non-tagged mOR-S6 in parallel expression systems (Ric-8B, RTP1, Gαolf)): not observed
response of the OR to the odorant [6]: responded

response of transfected cells to odorant (cAMP) ([7]; all four elements: untagged mOR-17, Gαolf, Ric-8B and RTP1): responded to heptanal specifically
response of transfected cells to odorant (cAMP) ([7]; untagged mOR-17, Gαolf and RTP1 (RTP1 replaced Ric-8B)): did not
response of transfected cells to odorant (cAMP) ([7]; untagged mOR-17, Gαolf and Ric-8B): responded
Structure (SMILES): CCCCCCC=O [heptanal]
recognition of odorant by receptor [8]: preferentially recognizes
recognition of odorant by receptor [9]: recognized

Structure (SMILES): CCCCCCCCO [octanol]
recognition of odorant by receptor [10]: recognizes

Structure (SMILES): CCCCCCO [hexanol]
stimulation of cAMP production (odorant specificity) [1]: Only eugenol stimulated production of cAMP

Structure (SMILES): CC(=O)c1ccccc1 [acetophenone]
stimulation of cAMP production (odorant specificity) [1]: Only eugenol stimulated production of cAMP
